# According to patent US12594258B2, “Inhibitors of MHC-I Nef downmodulation for treating HIV” (priority 2019, dated 2026):
# Key:
# [1] = test system: CEM-A2 cells; assay: Lysotracker Red and Nef activity in CEM-A2 cells; type: cell-based, human; settings: 1.25 nM
# Procedure: (§1) Cells were treated with plecomacrolides at a density of 1×10^6 cells/mL for 24 hours, then treated with 100 nM LysoTracker Red DND-99 (Fisher, L7528) in PBS at a density of 1×10^6 cells/mL for 1 hour at 37° C., washed twice in PBS, and fixed in 2% PFA before flow cytometric analysis on a BioRad Ze5 flow cytometer.
# To test this directly, CEM-A2 cells transduced with an adenoviral vector expressing Nef were used. This system has been used to study the formation of the AP-1:Nef:MHC-I complex under conditions where ammonium chloride prevents lysosomal degradation. Higher concentrations of CMA were required for reversal of Nef activity in CEM cells. […] This is functionally similar to 0.5 nM CMA treatment in CD4^+ T cells.
# [2] = test system: lysosome neutralization in primary CD4+ T cells; assay: Lysotracker Red flow cytometry assay in primary CD4+ T cells; type: cell-based, human
# Procedure: as §1
# Lysotracker Flow Cytometry Assay. Cells were treated with plecomacrolides at a density of 1×10^6 cells per milliliter for 24 h, and then treated with 100 nM LysoTracker Red DND-99 in phosphate-buffered saline (PBS) at a density of 1×10^6 cells per milliliter for 1 h at 37° C., washed twice in PBS, and fixed in 2% paraformaldehyde (PFA) before flow cytometric analysis on a flow cytometer.
# [3] = CMA concentration in mouse plasma and lymph nodes by mass spectrometry; type: in vivo, mice; settings: 2 hours after the final dose
# Procedure: FIG. 8A is a schematic representation of experiments for FIG. 8B-D. Five mice per group received injections of CMA every 2 days for 10 doses. Blood plasma and lymph nodes were harvested from mice sacrificed 2 hours after the final injection.
# FIG. 8D is a summary graph of mass spectrometry data quantifying the concentration of CMA in blood plasma from mice in each Group A and Group B.
# FIG. 8E is a summary graph of mass spectrometry data quantifying the concentration of CMA in lymph nodes from mice in each Group A and Group B. Points represent the 5 individual mice within each group. LOD=limit of detection. Open circles represent samples with CMA below the limit of detection.
# Mouse in vivo Assays. To further examine the tolerability of CMA, preliminary studies were performed in two groups of mice injected with different doses of CMA every other day for 18 days (FIG. 8A). […] In a separate experiment, plasma harvested from treated mice inhibited Nef in our in vitro assay (FIG. 8F). Taken together, these promising preliminary studies provide evidence that CMA is both efficacious and tolerable in vivo.
# [4] = test system: HIV Nef
# [5] = test system: HIV-infected primary CD4+ T cells; assay: Flow cytometric CTL killing assay; type: cell-based, human
# Source text: CTL clones were isolated by limiting dilution from HIV-1- infected individuals. […] The CTL clones were maintained in culture with periodic re-stimulation as previously described except for the following changes; CTL clones were stimulated with anti-CD3 clone 12F6 (NIH AIDS Reagent Program) and cultured with IL-2 (NIH AIDS Reagent Program, Hoffman-La Roche). Peripheral blood mononuclear feeder cells were isolated from leukopaks (New York Blood Center) and X-irradiated with […] in R10 medium. Irradiations were performed using a Kimtron IC 225(Kimtron Medical) at a dose rate of approximately 2 Gy/min in the University of Michigan Comprehensive Cancer Center Experimental Irradiation Core (Ann Arbor, Mich.). CTL clones 115B15 and 161JXA14 both recognize HIV gag amino acids 77-85; SLYNTVATL presented by MHC-I HLA-A2 (71).
# CTL elimination assays were performed as previously described with the following modifications: 72 hours post-infection primary CD4^+ T cells were stained with CellTracker Green (Fisher, c7025) according to manufacturer's protocol and treated with 0.5 nM CMA or solvent control for 24 hours. 50,000 target cells were used per condition, and following the 4 hours of co-culture, the cells were stained with DAPI as a viability dye in addition to anti-PLAP and BB7.2 antibodies. […]
structure (smiles),measurement,setting,value
"C/C=C/[C@H]1O[C@@](O)([C@@H](C)[C@H](O)[C@H](C)[C@H]2OC(=O)/C(OC)=C/C(C)=C/[C@@H](C)[C@@H](O)[C@@H](CC)[C@@H](O)[C@H](C)C/C(C)=C/C=C/[C@@H]2OC)C[C@@H](O[C@H]2C[C@@H](O)[C@H](OC(N)=O)[C@@H](C)O2)[C@@H]1C [CMA, concanamycin A]",Nef inhibition versus intracellular acidification,[1],inhibited Nef without significantly altering intracellular acidification
same,difference between EC50 for lysosome neutralization and EC50 for Nef inhibition,[2],27 fold
same,EC50,[2]; 24 hours,1.9 nM
same,CTL-mediated elimination of PLAP+ cells infected with Nef-competent virus,"[5]; 0.5 nM, 24 hours",efficiently eliminated by CTLs
same,clearance of SL9 peptide-pulsed target cells by anti-HIV CTLs,[5]; in the presence of 0.5 nM,No change in the clearance
